According to patent US5925730A, “GnRH antagonists” (Ferring BV, priority 1997, dated 1999):
Non-standard residues stand in square brackets, D forms with d. Residues, ends and D or L forms follow the SMILES beside them. *: point of attachment. dPhe(4-NHCONH2) = NC(=O)Nc1ccc(C[C@@H](N)C(=O)O)cc1; Phe(4-NHCONH2) = NC(=O)Nc1ccc(C[C@H](N)C(=O)O)cc1; Dihydroorotyl(S) = O=C1C[C@@H](C(=O)*)NC(=O)N1; dPhe(4-NH2) = Nc1ccc(C[C@@H](N)C(=O)O)cc1; dPhe(4-Cl) = N[C@H](Cc1ccc(Cl)cc1)C(=O)O; Phe(4-NH2) = Nc1ccc(C[C@H](N)C(=O)O)cc1; d2Nal = N[C@H](Cc1ccc2ccccc2c1)C(=O)O; Lys(iPr) = CC(C)NCCCC[C@H](N)C(=O)O; d3Pal = N[C@H](Cc1cccnc1)C(=O)O; X1 = O=C1NC[C@@H](C(=O)*)N1

Key:
[1] = examination of injected rats for tolerance and gelling at the point of injection; format: in vivo; details: 50 μg per rat sc
secretion of LH = assay: in vivo rat LH suppression test (circulating LH levels in castrated male rats after sc injection); set-up: species or system castrated male Sprague-Dawley rats; details: 50 micrograms sc; for effectiveness in suppression of LH compared with Acyline, day 1 through day 3: days 1-3
Procedure: The peptide is assayed in vivo to determine its effectiveness to suppress the secretion of LH in rats. Measurement of circulating LH levels in castrated male Sprague-Dawley rats treated subcutaneously with the peptide is carried out as reported in C. Rivier et al. Biol. Reproduc., 1983, 29, 374-378. The peptides are first dissolved at a concentration of 1.0 or 10 mg/ml in bacteriostatic water and then further diluted in 0.04 M phosphate buffer containing 0.1% BSA. Subsequent dilutions are made in phosphate buffer. The peptides are injected sc into 5 rats, and blood samples (300 μl) are collected under metotane anesthesia. Sera (50 μl) are tested for LH levels in duplicate using reagents provided by the National Pituitary and Hormone Distribution Program of the NIDDK.

[2] = water solubility compared with Acyline; format: physicochemical
[3] = hydrophilicity by RP-HPLC retention time (TEAP pH 7.0 / CH3CN gradient); format: physicochemical; details: RP-HPLC elution

Compound	duration of bioactivity for the suppression of LH (rating in words) (secretion of LH)	effectiveness in suppression of LH compared with Acyline, day 1 through day 3 (secretion of LH)	water solubility compared with Acyline [2]	hydrophilicity compared with Azaline B [3]	other results
CC(=O)N[C@H](Cc1ccc2ccccc2c1)C(=O)N[C@H](Cc1ccc(Cl)cc1)C(=O)N[C@H](Cc1cccnc1)C(=O)N[C@@H](CO)C(=O)N[C@@H](Cc1ccc(NC(=O)[C@@H]2CC(=O)NC(=O)N2)cc1)C(=O)N[C@H](Cc1ccc(NC(N)=O)cc1)C(=O)N[C@@H](CC(C)C)C(=O)N[C@@H](CCCCNC(C)C)C(=O)N1CCC[C@H]1C(=O)N[C@H](C)C(N)=O [Example 1, Ac-D-2Nal-(4Cl)D-Phe-D-3Pal-Ser-4Aph(hydroorotyl)-D-4Aph(carbamoyl)-Leu-Lys(isopropyl)-Pro-D-Ala-NH2] (Ac-[d2Nal][dPhe(4-Cl)][d3Pal]S[Phe(4-NH2)](Dihydroorotyl(S))[dPhe(4-NHCONH2)]L[Lys(iPr)]P[dA]-NH2)	–	–	–	–	gelling at the point of injection [1]: no significant gelling; tolerance of the peptide in injected rats [1]: very well tolerated
CC(=O)Nc1ccc(C[C@H](NC(=O)[C@H](CO)NC(=O)[C@@H](Cc2cccnc2)NC(=O)[C@@H](Cc2ccc(Cl)cc2)NC(=O)[C@@H](Cc2ccc3ccccc3c2)NC(C)=O)C(=O)N[C@H](Cc2ccc(NC(N)=O)cc2)C(=O)N[C@@H](CC(C)C)C(=O)N[C@@H](CCCCNC(C)C)C(=O)N2CCC[C@H]2C(=O)N[C@H](C)C(N)=O)cc1 [Example 1P, Ac-β-D-2Nal-D-4Cpa-D-3Pal-Ser-4Aph(Ac)-D-4Aph(carbamoyl)-Leu-Lys(isopropyl)-Pro-D-Ala-NH2] (Ac-[d2Nal][dPhe(4-Cl)][d3Pal]S[Phe(4-NH2)](Ac)[dPhe(4-NHCONH2)]L[Lys(iPr)]P[dA]-NH2)	long duration	substantially the same as Acyline	more water soluble than Acyline	–	suppression of LH compared with Acyline at 96 hours / 4 days (after day 3) (secretion of LH; 96 hours): slightly superior to Acyline
CC(=O)Nc1ccc(C[C@@H](NC(=O)[C@H](Cc2ccc(NC(N)=O)cc2)NC(=O)[C@H](CO)NC(=O)[C@@H](Cc2cccnc2)NC(=O)[C@@H](Cc2ccc(Cl)cc2)NC(=O)[C@@H](Cc2ccc3ccccc3c2)NC(C)=O)C(=O)N[C@@H](CC(C)C)C(=O)N[C@@H](CCCCNC(C)C)C(=O)N2CCC[C@H]2C(=O)N[C@H](C)C(N)=O)cc1 [Example 1Q, Ac-β-D-2Nal-D-4Cpa-D-3Pal-Ser-4Aph(carbamoyl)-D-4Aph(Ac)-Leu-Lys(isopropyl)-Pro-D-Ala-NH2] (Ac-[d2Nal][dPhe(4-Cl)][d3Pal]S[Phe(4-NHCONH2)][dPhe(4-NH2)](Ac)L[Lys(iPr)]P[dA]-NH2)	–	–	more water soluble than Acyline	–	effectiveness in suppression of LH compared with Acyline, first two days (secretion of LH; days 1-2): equal to about values of Acyline; suppression of LH compared with Acyline at days 3 and 4 (72 and 96 hours; after the first 2 days) (secretion of LH; days 3-4): not as effective as Acyline
CC(=O)Nc1ccc(C[C@@H](NC(=O)[C@H](Cc2ccc(NC(=O)[C@@H]3CNC(=O)N3)cc2)NC(=O)[C@H](CO)NC(=O)[C@@H](Cc2cccnc2)NC(=O)[C@@H](Cc2ccc(Cl)cc2)NC(=O)[C@@H](Cc2ccc3ccccc3c2)NC(C)=O)C(=O)N[C@@H](CC(C)C)C(=O)N[C@@H](CCCCNC(C)C)C(=O)N2CCC[C@H]2C(=O)N[C@H](C)C(N)=O)cc1 [Example 3A] (Ac-[d2Nal][dPhe(4-Cl)][d3Pal]S[Phe(4-NH2)](X1)[dPhe(4-NH2)](Ac)L[Lys(iPr)]P[dA]-NH2)	–	–	more water soluble than Acyline	–	–
Ac-β-D-2Nal-D-4Cpa-D-3Pal-Ser-4Aph(hydroorotyl)-D-4Aph(hydroorotyl)-Leu-Lys(isopropyl)-Pro-D-Ala-NH2 [Example 1G]	long-acting	–	–	more hydrophilic than Azaline B	effectiveness in suppression of LH compared with Acyline, day 1 through day 4 (96 hours) (secretion of LH; days 1-4): about as effective as Acyline
methylcarbamoyl-β-D-2Nal-D-4Cpa-D-3Pal-Ser-4Aph(hydroorotyl)-D-4Aph(acetyl)-Leu-Lys(isopropyl)-Pro-D-Ala-NH2 [Example 1J]	very long-acting	about as effective as Acyline	–	more hydrophilic than Azaline B	how much more effective than Acyline in suppression of LH after 96 hours (secretion of LH; 96 hours): ~50%
